Key:
DP8/9 = test system: DP8/9; design: method as in Patent EP09169269; settings: ref Patent EP09169269; cited from earlier work
mononuclear cells = test system: mononuclear cells; design: method as in Patent EP09169269; settings: ref Patent EP09169269; read-out: IC50, proliferation of mononuclear cells; cited from earlier work
T cells = test system: T cells; design: method as in Patent EP09169269; settings: ref Patent EP09169269; read-out: IC50, proliferation of T cells; cited from earlier work
[1] = test system: eMCAO-induced infarct volume; test: Effect of protease inhibitors on infarct volumes after eMCAO (transient focal cerebral ischemia); format: in vivo, male Sprague-Dawley rats; settings: rat, icv f.c. 10 μM; for effect on striatal lesion sizes / effect on eMCAO-induced infarct volumes in ipsilateral cortices: 7 days post eMCAO; for reduction of eMCAO-induced infarct volume in ipsilateral cortex compared to vehicle: mean ± S.E.M.
Experimental: Studies were performed on male Sprague-Dawley rats (250-280 g) obtained from Harlan Winkelmann (Borchen, Germany). Animals were maintained under constant environmental conditions with an ambient temperature of 21 ± 2°C and relative humidity of 40%. They were housed with a 12-h light-dark cycle, food and water were given ad libitum. […] Animals were anesthetized with halothane in a mixture of nitrous oxide/oxygen (70:30) and maintained with 2-3% halothane during the following procedures: rats were placed in a Kopf stereotaxic frame and further anesthetized via a nose cone. For the induction of eMCAO, a burr hole (1 mm diameter) was drilled into the skull (coordinates: anterior 0.50 mm from bregma, lateral 5.2 mm to […]). After careful opening of the dura, a 29-gauge cannula was lowered 7.5 mm below the dura according to the rat brain atlas of Paxinos and Watson. […] After further 5 min, the cannula was slowly withdrawn. Throughout the operation procedure, rats were kept at 37 ± 0.5°C using a thermostatically controlled heating blanket attached to a rectal thermometer. The animals were then placed under a heating lamp to maintain normothermia until recovery. In order to perform the icv application of different protease inhibitors under halothane anesthesia, a second burr hole was drilled into the skull (coordinates: posterior 0.80 mm from bregma, lateral 1.5 mm to […]). Then, a 29-gauge cannula was lowered 4.5 mm below the dura. The icv injection of IPC1755 (2 μl of a 10 mmol/l PBS/DMSO solution, pH 7.4, f.c. 10 μM) was performed according to one of the following time schedules; […] According to legal requirements of the German animal law, animals were kept under anesthesia during each drug injection. Control rats were treated in the same way, except that the corresponding vehicle solution instead of the drug was injected. Thus, potential protective effects of halothane can be excluded. Rats were maintained at 37 ± 0.5°C throughout the operation procedures. In parallel, the body temperature was monitored using a rectal temperature sensor. Subsequently, the animals were placed into an incubator to maintain normothermia until recovery from anesthesia and then returned into their home cage. After a survival time of 7 days after eMCAO, animals were anesthetized by intraperitonial injection of pentobarbital and transcardially perfusion-fixed with saline followed by 4% paraformaldehyde in 0.1 M PBS (pH 7.4). Brains were then removed carefully, post-fixed in the same fixative for 2 h, and placed in a rodent brain matrix (rat, ASI Instruments, Warren, MI, USA). 1-mm coronal brain slices were cut with a razor blade at 14 predetermined anterior-posterior levels. After cryoprotection in 30% sucrose, slices were rapidly frozen in isopentane and stored at -80°C. Four to five cryostat sections (30 μm) from each brain slice were cut in a cryo microtome and stained with toluidine blue. The extent of cortical and striatal damage following ischemic injury was documented with microphotographic images from Nissl-stained slices showing the anterior-posterior level according to the brain atlas of Paxinos and Watson. The volumes of cortical and striatal infarct lesions were measured at eight predetermined anterior-posterior levels by an operator blinded to the group composition. Three-dimensional lesion sizes were calculated by integration of two-dimensional lesion sizes at each stereotactic level and the distances between the various levels. Image analysis was performed with an Eclipse TE 3000 microscope (Nikon, Düsseldorf, Germany), equipped with a 4x objective, and the Lucia software package (Version 4.2.1., Nikon). Data were statistically analyzed by non-paired Student's t-test and given as mean ± S.E.M.

DPIV = test system: DPIV; design: method as in Patent EP09169269; settings: ref Patent EP09169269; cited from earlier work
DPII = test system: DPII; design: method as in Patent EP09169269; settings: ref Patent EP09169269; cited from earlier work
APN = test system: APN; design: method as in Patent EP09169269; settings: ref Patent EP09169269; cited from earlier work
cAAP = test system: cAAP; design: method as in Patent EP09169269; settings: ref Patent EP09169269; cited from earlier work
[2] = in parallel to eMCAO and 6 h and 24 h post insult, analyzed 7 days post eMCAO
[3] = in parallel to eMCAO and 6 h and 24 h post insult

## CCCCCCCCCCCCCCCC(=O)OC(C(=O)NCC(C)(C)CNC(=O)CC(N)Cc1cc(F)ccc1F)C(N)Cc1ccccc1 (stereo not shown) [IPC1755]
DP8/9
  IC50: 85 µM
Mononuclear cells
  IC50: 36 µM
T cells
  IC50: 34 µM
[1]; all three time schedules (Figure 7C columns b-d)
  effect on striatal lesion sizes: did not affect striatal lesion sizes
[1]; exclusively 6 and 24 h post eMCAO, analyzed 7 days post eMCAO
  cortical lesion size, % of control damage of vehicle-treated animals: 107.5 ± 12.8%
[1]; [2]
  reduction of eMCAO-induced infarct volume in ipsilateral cortex compared to vehicle: 48.8 ± 7.9%
DPIV
  IC50: 0.06 µM
DPII
  IC50: 166 µM
APN
  IC50: 0.03 µM
cAAP
  IC50: 0.02 µM

## CC[C@@H](C)[C@H](N)C(=O)N1Cc2ccccc2C1.Cl [selective DP8/9 inhibitor, (2S,3R)-2-(2-amino-3-methyl-1-oxopentan-1-yl)-1,3-dihydro-2H-isoindole hydrochloride]
[1]; [3]
  effect on eMCAO-induced infarct volumes in ipsilateral cortices: did not decrease
  effect on striatal lesion sizes: neither sitagliptin nor selective DPII or DP8/9 inhibition affected

## NCC[C@H](N)C(=O)N1CCCCC1 [selective DPII inhibitor, L-2,4-Diaminobutyrylpiperidinamide]
[1]; [3]
  effect on eMCAO-induced infarct volumes in ipsilateral cortices: did not decrease
  effect on striatal lesion sizes: neither sitagliptin nor selective DPII or DP8/9 inhibition affected

## N[C@@H](CC(=O)N1CCn2c(nnc2C(F)(F)F)C1)Cc1cc(F)c(F)cc1F [sitagliptin, (R)-3-Amino-1-[3-(trifluormethyl)-5,6,7,8-tetrahydro[1,2, 4]triazol[4,3-a]pyrazin-7-yl]-4-(2,4,5-trifluorphenyl)butan-1-on]
[1]; [3]
  effect on striatal lesion sizes: neither sitagliptin nor selective DPII or DP8/9 inhibition affected
[1]; [2]
  reduction of eMCAO-induced infarct volume in ipsilateral cortex compared to vehicle: 21.1 ± 5.8%

From paper PMC3359160, “Dipeptidyl peptidase IV, aminopeptidase N and DPIV/APN-like proteases in cerebral ischemia” (Journal of Neuroinflammation, 2012)
